Source: patent publication US10967078B2, “Radiolabelled mGluR2 PET ligands” (Janssen Pharmaceutica NV, priority 2014, dated 2021)

How the values were obtained:
mGluR2 [1] = target: T1, mGluR2 (Mus musculus, UniProt Q14BI2); test: In vitro autoradiography binding on mGluR2 KO and WT mouse brain sections
T1 construct: horizontal sections of mGluR2 KO and WT mouse brain and of normal female Wistar rat brain; from tissue; host or cells: mouse brain sections (WT and mGluR2 KO), 20 µm
Method: (§1) In vitro autoradiography studies were performed on horizontal sections of mGluR2 KO and WT mouse brain and of normal female Wistar rat brain (20 μm). The sections were preincubated in 50 mM Tris-HCl (MgCl2 2 mM, CaCl2 2 mM; pH 7.0) for 10 min (two times) at room temperature and dried. Next, the brain sections were incubated with tracer [^11C]-2, [^11C]-5, [^11C]-4, [^11C]-1 or [^18F]-3 diluted in the same Tris-HCl buffer as used for the preincubation additionally containing 0.1% BSA or with this tracer solution in the presence of 10 μM Co. No. 2 or Co. No. 1. The mouse brain sections were incubated with 17 kBq of carbon-11 labeled tracer and 1.7 kBq of fluorine-18 labeled tracer. For the rat brain sections this was 44 kBq of carbon-11 labeled tracer and 0.44 kBq of fluorine-18 labeled tracer. After 30 min of incubation, the brain sections were washed three times for 5 min in ice-cold Tris-HCl 50 mM ((MgCl2 2 mM, CaCl2 2 mM; pH 7.0+0.1% BSA buffer). After a quick dip in purified ice-cold water, the slides were dried. Autoradiograms were obtained by exposing the slides overnight to a high-performance phosphor storage screen (super-resolution screen; Perkin Elmer, Waltham, USA). The screens were read using a Cyclone Plus system (Perkin Elmer) and analysed using Optiquant software (Perkin Elmer). The radioactivity concentration in the autoradiograms was expressed in digital light units (DLU)/mm^2.
(§2) To obtain additional information on the specificity of the tracer binding to mGluR2, in vitro autoradiography binding studies were performed on mGluR2 KO and WT mouse brain sections and on normal rat brain sections in presence or absence of a high concentration of mGluR2 NAM compounds (Co. No. 1 or Co. No. 2).

mGluR2 [2] = target: T2, mGluR2 (Rattus norvegicus, UniProt P31421); test: In vitro autoradiography binding on normal female Wistar rat brain sections
T2 construct: horizontal sections of mGluR2 KO and WT mouse brain and of normal female Wistar rat brain; from tissue; host or cells: normal female Wistar rat brain sections, 20 µm
T2 sequence (P31421 19-872): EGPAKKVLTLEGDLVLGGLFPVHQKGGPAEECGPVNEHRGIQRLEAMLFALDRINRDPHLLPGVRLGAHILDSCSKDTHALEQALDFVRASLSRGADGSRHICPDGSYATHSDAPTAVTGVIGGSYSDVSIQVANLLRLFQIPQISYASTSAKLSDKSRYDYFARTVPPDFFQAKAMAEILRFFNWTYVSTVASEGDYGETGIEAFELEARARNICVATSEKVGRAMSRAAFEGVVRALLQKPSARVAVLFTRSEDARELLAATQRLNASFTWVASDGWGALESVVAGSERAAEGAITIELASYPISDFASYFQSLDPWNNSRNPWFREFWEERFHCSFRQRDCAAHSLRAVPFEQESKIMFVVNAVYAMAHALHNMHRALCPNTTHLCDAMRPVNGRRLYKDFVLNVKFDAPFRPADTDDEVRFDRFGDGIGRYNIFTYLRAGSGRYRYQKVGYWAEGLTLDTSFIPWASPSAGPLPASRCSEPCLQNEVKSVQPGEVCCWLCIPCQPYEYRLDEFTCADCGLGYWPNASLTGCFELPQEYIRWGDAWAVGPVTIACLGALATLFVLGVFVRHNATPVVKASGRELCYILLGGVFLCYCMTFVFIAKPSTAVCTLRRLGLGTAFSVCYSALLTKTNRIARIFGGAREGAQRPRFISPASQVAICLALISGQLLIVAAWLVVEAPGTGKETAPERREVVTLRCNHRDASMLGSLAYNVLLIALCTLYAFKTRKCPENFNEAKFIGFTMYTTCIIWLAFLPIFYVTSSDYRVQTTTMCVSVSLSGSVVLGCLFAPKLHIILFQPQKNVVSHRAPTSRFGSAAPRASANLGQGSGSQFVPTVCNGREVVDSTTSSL
Method: as §1, §2

[3] = WT mouse cortex, block with 10 μM Co. No. 1
[4] = WT mouse striatum, block with 10 μM Co. No. 1
[5] = self-blocking or blocking with Co. No. 1 (10 μM)

T1 sequence (Q14BI2 19-872): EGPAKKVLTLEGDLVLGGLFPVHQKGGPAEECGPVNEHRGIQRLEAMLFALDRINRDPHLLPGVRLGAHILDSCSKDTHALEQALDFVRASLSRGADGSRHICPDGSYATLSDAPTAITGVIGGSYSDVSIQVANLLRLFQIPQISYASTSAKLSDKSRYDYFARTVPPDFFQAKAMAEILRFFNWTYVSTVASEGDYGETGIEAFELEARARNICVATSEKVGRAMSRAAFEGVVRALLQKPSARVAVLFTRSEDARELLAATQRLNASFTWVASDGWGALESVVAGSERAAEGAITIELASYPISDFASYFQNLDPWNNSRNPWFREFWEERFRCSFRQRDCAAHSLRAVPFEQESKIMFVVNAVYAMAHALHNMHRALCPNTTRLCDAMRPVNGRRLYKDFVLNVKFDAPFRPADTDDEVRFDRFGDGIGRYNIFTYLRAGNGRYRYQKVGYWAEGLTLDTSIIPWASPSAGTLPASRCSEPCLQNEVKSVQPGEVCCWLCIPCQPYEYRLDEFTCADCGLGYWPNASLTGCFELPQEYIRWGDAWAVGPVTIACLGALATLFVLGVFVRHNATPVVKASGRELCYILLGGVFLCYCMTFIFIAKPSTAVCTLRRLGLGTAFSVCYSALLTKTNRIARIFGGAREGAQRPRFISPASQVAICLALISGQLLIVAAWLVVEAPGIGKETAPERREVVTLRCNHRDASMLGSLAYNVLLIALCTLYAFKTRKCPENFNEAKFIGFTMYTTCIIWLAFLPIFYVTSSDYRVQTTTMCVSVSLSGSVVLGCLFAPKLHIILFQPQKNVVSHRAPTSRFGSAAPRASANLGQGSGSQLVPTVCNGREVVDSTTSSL

SMILES: C[C@H]1CN(c2ccc(C(F)(F)F)cc2)C(=O)c2c(-c3ccnc(N[11CH3])c3)cnn21 [[^11C]-2]
- Cortex WT (TB)/cortex WT (block Co. No. 1) (mGluR2 [1]; [3]): ~6.7
- spec binding, cortex WT (mGluR2 [1]; [3]): (~85% spec
- Striatum WT (TB)/striatum WT (block Co. No. 1) (mGluR2 [1]; [4]): ~8.3
- spec binding, striatum WT (mGluR2 [1]; [4]): (~88% spec
- difference in tracer binding to WT and mGluR2 KO mouse brain sections (mGluR2 [1]; in words): significant difference
- Cortex WT (TB)/Cortex KO (TB) (mGluR2 [1]; total binding ratio, WT versus mGluR2 KO mouse brain sections, cortex): ~8.1
- Striatum WT (TB)/Striatum KO (TB) (mGluR2 [1]; total binding ratio, WT versus mGluR2 KO mouse brain sections, striatum): ~4.8
- total binding to normal rat brain sections (mGluR2 [2]; in words): high binding
- decrease in binding in rat cortex (mGluR2 [2]; [5]): ~91%
- decrease in binding in rat striatum (mGluR2 [2]; [5]): ~78%
